Results taken from US9149038B2, “4-amino-6-(heterocyclic)picolinates and 6-amino-2-(heterocyclic)pyrimidine-4-carboxylates and their use as herbicides” (Dow AgroSciences LLC, priority 2013, dated 2015).
Read-outs that look alike come from different tables or passages of the source.

Experiments:
[1] = tested on: Key Grass and Sedge Weeds as well as Grass Crops; assay: Post-Emergent Test II: postemergent herbicidal activity, visual rating after 14 d (Table 8); assay type: in vivo; details: post-emergence, 336 h; for pest or weed control at 35 g/ha: 35 g ai/ha; for pest or weed control at 70 g/ha: 70 g ai/ha; for pest or weed control at 140 g/ha: 140 g ai/ha
Method in brief: (§1)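 Visual scoring at 14 d, 0 (no injury) to 100 (complete kill), relative to untreated plants. Postemergent overhead track-sprayer application, 187 L/ha, at a top rate plus serial ½×–1/16× rates, to plants grown 7–21 d at about 23–29° C day under a 15 h photoperiod, then subirrigated.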

[2] = tested on: Key Broadleaf Weed and Crop Species; assay: Post-Emergent Test II: postemergent herbicidal activity, visual rating after 14 d (Table 7); assay type: in vivo; details: post-emergence, 336 h; for pest or weed control at 35 g/ha: 35 g ai/ha; for pest or weed control at 70 g/ha: 70 g ai/ha; for pest or weed control at 140 g/ha: 140 g ai/ha
Method in brief: as §1

[3] = barnyardgrass (Echinochloa crus-galli), read-out: Visual Growth Reduction (%) 14 Days After Application ECHCG
[4] = giant foxtail (Setaria faberi), read-out: Visual Growth Reduction (%) 14 Days After Application SETFA
[5] = maize, corn (Zea mays), read-out: Visual Growth Reduction (%) 14 Days After Application ZEAMX
[6] = rice (Oryza sativa), read-out: Visual Growth Reduction (%) 14 Days After Application ORYSA
[7] = wheat, spring (Triticum aestivum), read-out: Visual Growth Reduction (%) 14 Days After Application TRZAS
[8] = yellow nutsedge (Cyperus esculentus), read-out: Visual Growth Reduction (%) 14 Days After Application CYPES
[9] = lambsquarters (Chenopodium album), read-out: Visual Growth Reduction (%) 14 Days After Application CHEAL
[10] = oilseed rape, canola (Brassica napus), read-out: Visual Growth Reduction (%) 14 Days After Application BRSNN
[11] = redroot pigweed (Amaranthus retroflexus), read-out: Visual Growth Reduction (%) 14 Days After Application AMARE
[12] = sunflower (Helianthus annuus), read-out: Visual Growth Reduction (%) 14 Days After Application HELAN
[13] = velvetleaf (Abutilon theophrasti), read-out: Visual Growth Reduction (%) 14 Days After Application ABUTH
[14] = wild poinsettia (Euphorbia heterophylla), read-out: Visual Growth Reduction (%) 14 Days After Application EPHHL

| SMILES | pest or weed control at 35 g/ha [1, 3] [%] | pest or weed control at 70 g/ha [1, 3] [%] | pest or weed control at 140 g/ha [1, 3] [%] | pest or weed control at 35 g/ha [1, 4] [%] | pest or weed control at 70 g/ha [1, 4] [%] | pest or weed control at 140 g/ha [1, 4] [%] | pest or weed control at 35 g/ha [1, 5] [%] | pest or weed control at 70 g/ha [1, 5] [%] | pest or weed control at 140 g/ha [1, 5] [%] | pest or weed control at 35 g/ha [1, 6] [%] | pest or weed control at 70 g/ha [1, 6] [%] | pest or weed control at 140 g/ha [1, 6] [%] | pest or weed control at 35 g/ha [1, 7] [%] | pest or weed control at 70 g/ha [1, 7] [%] | pest or weed control at 140 g/ha [1, 7] [%] | pest or weed control at 35 g/ha [1, 8] [%] | pest or weed control at 70 g/ha [1, 8] [%] | pest or weed control at 140 g/ha [1, 8] [%] | pest or weed control at 35 g/ha [2, 9] [%] | pest or weed control at 70 g/ha [2, 9] [%] | also measured |
| --- | --- | --- | --- | --- | --- | --- | --- | --- | --- | --- | --- | --- | --- | --- | --- | --- | --- | --- | --- | --- | --- |
| Nc1c(F)c(-c2ccc(Br)c3c2OC(F)(F)O3)nc(C(=O)O)c1Cl [Compound 80] | 0 to 29 | 0 to 29 | 0 to 29 | 0 to 29 | 0 to 29 | 0 to 29 | 45 to 59 | 60 to 74 | 60 to 74 | 0 to 29 | 0 to 29 | 0 to 29 | 0 to 29 | 0 to 29 | 0 to 29 | 0 to 29 | 0 to 29 | 0 to 29 | 95 to 100 | 95 to 100 | pest or weed control at 140 g/ha [2, 9]: 95 to 100%; pest or weed control at 35 g/ha [2, 10]: 85 to 94%; pest or weed control at 70 g/ha [2, 10]: 85 to 94%; pest or weed control at 140 g/ha [2, 10]: 85 to 94%; pest or weed control at 35 g/ha [2, 11]: 95 to 100%; pest or weed control at 70 g/ha [2, 11]: 95 to 100%; pest or weed control at 140 g/ha [2, 11]: 95 to 100%; pest or weed control at 35 g/ha [2, 12]: 85 to 94%; pest or weed control at 70 g/ha [2, 12]: 85 to 94%; pest or weed control at 140 g/ha [2, 12]: 85 to 94%; pest or weed control at 35 g/ha [2, 13]: 60 to 74%; pest or weed control at 70 g/ha [2, 13]: 75 to 84%; pest or weed control at 140 g/ha [2, 13]: 85 to 94%; pest or weed control at 35 g/ha [2, 14]: 0 to 29%; pest or weed control at 70 g/ha [2, 14]: 0 to 29%; pest or weed control at 140 g/ha [2, 14]: 0 to 29% |
| Nc1c(F)c(-c2ccc(I)c3c2OC(F)(F)O3)nc(C(=O)O)c1Cl [Compound 81] | 0 to 29 | 0 to 29 | 0 to 29 | 0 to 29 | 0 to 29 | 0 to 29 | 0 to 29 | 0 to 29 | 0 to 29 | 0 to 29 | 0 to 29 | 0 to 29 | 0 to 29 | 0 to 29 | 0 to 29 | 0 to 29 | 0 to 29 | 0 to 29 | 85 to 94 | 85 to 94 | pest or weed control at 140 g/ha [2, 9]: 85 to 94%; pest or weed control at 35 g/ha [2, 10]: 75 to 84%; pest or weed control at 70 g/ha [2, 10]: 85 to 94%; pest or weed control at 140 g/ha [2, 10]: 95 to 100%; pest or weed control at 35 g/ha [2, 11]: 95 to 100%; pest or weed control at 70 g/ha [2, 11]: 95 to 100%; pest or weed control at 140 g/ha [2, 11]: 95 to 100%; pest or weed control at 35 g/ha [2, 12]: 85 to 94%; pest or weed control at 70 g/ha [2, 12]: 85 to 94%; pest or weed control at 140 g/ha [2, 12]: 85 to 94%; pest or weed control at 35 g/ha [2, 13]: 0 to 29%; pest or weed control at 70 g/ha [2, 13]: 60 to 74%; pest or weed control at 140 g/ha [2, 13]: 75 to 84%; pest or weed control at 35 g/ha [2, 14]: 0 to 29%; pest or weed control at 70 g/ha [2, 14]: 0 to 29%; pest or weed control at 140 g/ha [2, 14]: 0 to 29% |
